Measured values reported in PMC11984388, “A brain-accessible peptide modulates stroke inflammatory response and neurotoxicity by targeting BDNF-receptor TrkB-T1 specific interactome” (Theranostics, 2025).
Residues, ends and D or L forms follow the SMILES beside them. *: point of attachment. Biotin = O=C1N[C@H]2[C@H](CS[C@H]2CCCCC(=O)*)N1

Tested on: RhoGDI
Test: Western blot of total RhoGDI levels
Type: cell-based, rat
Conditions: peptide 25 µM 30 min, mean, n = 6-7 (Fig S3)
Protocol: Ce lls were lyse d in RI P A buffer (50 mM Tris-HCl pH 8.0, 150 mM NaC l, 1% sodium deoxycholate , 1% NP-40, 0.1% SDS, 1 mM DT T), supple me nted with protease and phospha tase inhibitors as above, for 30 min at 4 °C. Then, cell lysa te s were sonic ated using a Bioruptor apparatus and centrifuga ted at 4 °C for 20 min at 10,000 rpm. The protein conce ntration in lysa te s was es tablished with BC A Prote in As say Kit (Thermo Fisher) follow ed by 5 min denaturalization in SDS-sa mple buffer at 95º. Equal amounts of total lysa te s were resolved in Tris-Glycine SDS-PAGE and transferre d to a nitroc ellulos e membrane (GE Healthca re ) in 25 mM Tris HCl pH 8.3, 250 mM glycine and 10% methanol, using an electr ic curre nt of 400 mA for 70 min. After transfer, membranes were sta ine d with a Ponceau S solution to chec k for its effic acy. Then, membranes were blocked for 30 min with a 5% non-fat […]
dry milk solution in Tris Buffere d Saline-Tween (TBS-T, 20 mM Tris HCl pH 7.5, 137 mM NaC l, 0.05% Tween-20) and incubated overnight at 4°C with prima ry antibodies . Next, membranes were was hed with TBS-T and incubated with the appropria te anti-rabbit or anti-mouse peroxidase-conjugated se condary antibodies (Bethyl) for 1 h. To conclude, immunore activity was detecte d using Clar ity Wes ter n ECL Blotting Substrate (BioRad) and band intensity was quantified by dens itome tric analys is (Photos hop, Adobe). Levels of the protein of interest were normalized using those of neuron- spe cific enolas e (NSE) present in the sa m e sa mple and express ed relative to values obtained in their respec tive controls, arbitrarily given a 100% value. NSE was use d as a neuronal loading control sinc e it is not af fe cted by NM DA treatment. Exceptionally, levels of TrkB -T1 were normalized to those of ß- actin in the comparison of prima ry mixed cultures and those of as trocytes . Multiple independent experiments were car r ied out and quantitated as detailed in the figure legends .
Cell transfection and gene reporter ass ays
Plasmids contained minimal CREB or MEF2 response elements upstream firefly luciferase reporter gene (respectively, pCRE or pMEF2; see details in Supplementary Table 1). Primary cultures, without the AraC treatment, were transfected at 11 DIVs with 0.4 µg of plasmids using Lipofectamine 2000. […] Protein extracts were obtained using Passive Lysis Buffer (Promega, Cat# E1941) and luciferase activity was detected by a luminometer (GloMax 96 microplate luminometer, Promega), using REAP buffer (25 mM glycylglycine, 15 mM SO4Mg, 4 mM EGTA, 15 mM potassium phosphate pH 7.8, 3.3 mM ATP, 1 mM DTT, 75 µM luciferin). […]

[1] = then BDNF 100 ng/ml 30 min, relative to basal Bio-TMyc (100%)

`CC[C@H](C)[C@H](NC(=O)[C@H](CC(C)C)NC(=O)[C@H](CCCCN)NC(=O)[C@H](CCC(N)=O)NC(=O)[C@H](CCC(=O)O)NC(=O)[C@H](CCC(=O)O)NC(=O)[C@H](C)NC(=O)[C@H](CCCNC(=N)N)NC(=O)[C@H](CCCNC(=N)N)NC(=O)[C@H](CCCNC(=N)N)NC(=O)[C@H](CCC(N)=O)NC(=O)[C@H](CCCNC(=N)N)NC(=O)[C@H](CCCNC(=N)N)NC(=O)[C@H](CCCCN)NC(=O)[C@H](CCCCN)NC(=O)[C@H](CCCNC(=N)N)NC(=O)CNC(=O)[C@H](Cc1ccc(O)cc1)NC(=O)CCCC[C@@H]1SC[C@@H]2NC(=O)N[C@@H]21)C(=O)N[C@@H](CO)C(=O)N[C@@H](CCC(=O)O)C(=O)N[C@@H](CCC(=O)O)C(=O)N[C@@H](CC(=O)O)C(=O)N[C@@H](CC(C)C)C(=O)N[C@@H](CC(C)C)C(=O)N[C@@H](CCCNC(=N)N)C(N)=O` [Bio-TMyc, reference compound] (Biotin-YGRKKRRQRRRAEEQKLISEEDLLR-NH2) was tested, and the RhoGDI total levels (basal, relative to basal conditions with Bio-TMyc (100%)) was 100% and the RhoGDI total levels [1] was 92%.

`CC[C@H](C)[C@H](NC(=O)[C@H](CCCCN)NC(=O)[C@H](Cc1c[nH]cn1)NC(=O)[C@H](Cc1ccccc1)NC(=O)[C@H](CC(C)C)NC(=O)[C@@H](NC(=O)[C@H](Cc1ccccc1)NC(=O)[C@H](CCCNC(=N)N)NC(=O)[C@H](CCCNC(=N)N)NC(=O)[C@H](CCCNC(=N)N)NC(=O)[C@H](CCC(N)=O)NC(=O)[C@H](CCCNC(=N)N)NC(=O)[C@H](CCCNC(=N)N)NC(=O)[C@H](CCCCN)NC(=O)[C@H](CCCCN)NC(=O)[C@H](CCCNC(=N)N)NC(=O)CNC(=O)[C@H](Cc1ccc(O)cc1)NC(=O)CCCC[C@@H]1SC[C@@H]2NC(=O)N[C@@H]21)C(C)C)C(=O)N1CCC[C@H]1C(=O)N[C@@H](CC(C)C)C(=O)N[C@@H](CC(=O)O)C(=O)NCC(N)=O` [Bio-sTT1Ct] (Biotin-YGRKKRRQRRRFVLFHKIPLDG-NH2) was tested, and the RhoGDI total levels [1] was 93% and the RhoGDI total levels (then NMDA 30 min, relative to basal Bio-TMyc (100%)) was 91%.
